10 compounds from ChEMBL document CHEMBL1201862, “PubChem BioAssay data set” (2004) can be followed below.

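1) Cells in 96-well plates. 2) Compound, 48 h, 5 concentrations. 3) Linear interpolation between surrounding doses. 4) Unreached endpoint = highest concentration. Here, GI50 denotes the concentration required for 50% inhibition of growth.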 Activity calls are given as the source filed them. Cut-off read from the data, not from the text of the source: active = GI50 up to about 1.1 µM and inactive = higher.

Some test systems named below: SNB-19; U-251; SN12C; SK-MEL-28; OVCAR-4; SK-MEL-5; SW-620; EKVX; LOX IMVI; SF-539; UACC-62; SF-268; SK-MEL-2; RXF 393; SK-OV-3; HCT-15; OVCAR-8; HT-29; K562; NCI-H23.
Experiment in all cases: DTP human tumour cell line panel, 48 h

For the compound `N/C(=N\O)N/N=C\c1ccc(O)c(O)c1O`, the GI50 with SNB-19 was > 51.9 µM (inactive); in the experiment with U-251 it was > 52.8 µM (inactive); in the experiment on SN12C it was 19.5 µM (inactive); in the experiment with SK-MEL-28, > 100 µM (inactive); in the experiment with OVCAR-4 it was 10.9 µM (inactive); with SK-MEL-5, 19.8 µM (inactive). The GI50 was 19.7 µM (inactive) in the experiment on SW-620; > 78.5 µM (inactive) in the experiment with EKVX; 16.3 µM (inactive) in the experiment on LOX IMVI; > 100 µM (inactive) in the experiment with SF-539; 17.3 µM (inactive) with UACC-62; 60.1 µM (inactive) in the experiment with SF-268. For the same compound, the GI50 in the experiment on SK-MEL-2 was > 46 µM (inactive); in the experiment on RXF 393 it was 18.9 µM (inactive); in the experiment with SK-OV-3, > 100 µM (inactive); in the experiment on HCT-15, 19.2 µM; with OVCAR-8, 30.4 µM (inactive); with HT-29 it was 11.1 µM (inactive). The GI50 with K562 is 17.8 µM (inactive); with NCI-H23, 24.4 µM (inactive).
On to `S=c1sc2c(s1)SC(c1ccccc1)CS2` (stereo not given), for which the GI50 in the experiment with SNB-19 is > 100 µM (inactive); in the experiment with U-251, > 100 µM (inactive); in the experiment on SN12C, > 100 µM (inactive); in the experiment with SK-MEL-28, > 100 µM (inactive); in the experiment on OVCAR-4, 20.4 µM (inactive); in the experiment with SK-MEL-5, > 100 µM (inactive). In addition, the GI50 in the experiment on SW-620 was > 100 µM (inactive); in the experiment with EKVX, > 100 µM (inactive); with LOX IMVI, > 86.3 µM (inactive); in the experiment on SF-539, > 100 µM (inactive); in the experiment with UACC-62, > 100 µM (inactive); in the experiment with SF-268 it was > 100 µM (inactive). Besides, the GI50 is > 100 µM (inactive) in the experiment on SK-MEL-2; 25.1 µM (inactive) in the experiment with RXF 393; > 100 µM (inactive) in the experiment with SK-OV-3; > 100 µM in the experiment with HCT-15; > 100 µM (inactive) with OVCAR-8; > 100 µM (inactive) with HT-29. Further, the GI50 in the experiment on K562 and in the experiment with NCI-H23 was > 100 µM (inactive) throughout.
Consider `CNC(=O)OCC1=C(COC(=O)NC)CN(c2ccc(OC)cc2)C1`, for which the GI50 with SNB-19, in the experiment on U-251, in the experiment on SN12C, with SK-MEL-28, in the experiment on OVCAR-4 and with SK-MEL-5 was > 100 µM (inactive) in each case. For the same compound, the GI50 with SW-620, in the experiment with EKVX, with LOX IMVI, in the experiment on SF-539, in the experiment on UACC-62 and in the experiment with SF-268 was > 100 µM (inactive) each time. The GI50 in the experiment on SK-MEL-2 is > 100 µM (inactive); in the experiment on RXF 393, > 100 µM (inactive); in the experiment on SK-OV-3, > 100 µM (inactive); with HCT-15, > 100 µM; in the experiment on OVCAR-8, > 100 µM (inactive); in the experiment on HT-29, > 100 µM (inactive). The GI50 in the experiment on K562 and with NCI-H23 was > 100 µM (inactive) throughout.
Turning to `COc1ccc([C@H]2c3cc4c(cc3OC(O)(CO)[C@H]2C(=O)O)OCO4)c(OC)c1.COc1ccc([C@H]2c3cc4c(cc3OC3(O)COC(=O)[C@@H]23)OCO4)c(OC)c1` (stereo not given in full), the GI50 with SNB-19 was > 100 µM (inactive); in the experiment on U-251, 41.9 µM (inactive); in the experiment with SN12C it was > 100 µM (inactive); in the experiment with SK-MEL-28, 35.8 µM (inactive); with OVCAR-4 it was > 100 µM (inactive); in the experiment with SK-MEL-5, > 100 µM (inactive). In addition, the GI50 with SW-620 is > 100 µM (inactive); in the experiment on EKVX, > 100 µM (inactive); in the experiment on LOX IMVI, 95.5 µM (inactive); in the experiment on SF-539, > 100 µM (inactive); in the experiment on UACC-62, 41.5 µM (inactive); in the experiment on SF-268, > 100 µM (inactive). In addition, the GI50 was > 100 µM (inactive) in the experiment on SK-MEL-2; > 100 µM (inactive) in the experiment with RXF 393; > 100 µM (inactive) with SK-OV-3; 37.6 µM in the experiment on HCT-15; > 100 µM (inactive) in the experiment with OVCAR-8; > 100 µM (inactive) in the experiment on HT-29. Also, the GI50 with K562 was 71.1 µM (inactive); in the experiment with NCI-H23, > 100 µM (inactive).
As to `COc1ccc2c(C)cc(N/N=C(\C)C=O)nc2c1`, the GI50 with SNB-19 is 13 µM (inactive); with U-251, 11.4 µM (inactive); with SN12C, 11.2 µM (inactive); in the experiment with SK-MEL-28, 13.7 µM (inactive); with OVCAR-4, 11.2 µM (inactive); in the experiment on SK-MEL-5, 12.7 µM (inactive). Further, the GI50 was 7.57 µM (inactive) with SW-620; 16.6 µM (inactive) with EKVX; 10.2 µM (inactive) in the experiment with LOX IMVI; 6.25 µM (inactive) with SF-539; 12.6 µM (inactive) with UACC-62; 13.8 µM (inactive) in the experiment on SF-268. The GI50 in the experiment on SK-MEL-2 was 13.4 µM (inactive); with RXF 393, 10.6 µM (inactive); in the experiment on SK-OV-3, 11.2 µM (inactive); in the experiment with HCT-15 it was 3.78 µM; in the experiment on OVCAR-8, 11.5 µM (inactive); with HT-29, 12.2 µM (inactive). The GI50 with K562 was 2.47 µM (inactive); in the experiment with NCI-H23, 11.8 µM (inactive).
With `COC(=O)C(C)NP(=O)(N1CC1)N1CC1` (stereo not given), the GI50 is > 100 µM (inactive) with SNB-19; > 100 µM (inactive) in the experiment on U-251; 73.6 µM (inactive) with SN12C; > 100 µM (inactive) in the experiment with SK-MEL-28; > 100 µM (inactive) with OVCAR-4; > 100 µM (inactive) with SK-MEL-5. Also, the GI50 was > 100 µM (inactive) in the experiment on SW-620; > 100 µM (inactive) in the experiment on EKVX; 80 µM (inactive) in the experiment with LOX IMVI; > 100 µM (inactive) in the experiment on SF-539; 61.8 µM (inactive) in the experiment with UACC-62; > 100 µM (inactive) in the experiment on SF-268. Also, the GI50 in the experiment on SK-MEL-2 was > 100 µM (inactive); in the experiment with RXF 393 it was > 100 µM (inactive); in the experiment on SK-OV-3, > 100 µM (inactive); with HCT-15 it was > 100 µM; in the experiment with OVCAR-8, > 100 µM (inactive); in the experiment on HT-29, > 100 µM (inactive). Moreover, the GI50 in the experiment on K562 was > 100 µM (inactive); in the experiment with NCI-H23 it was 97.3 µM (inactive).
With `Cc1ccc(C)c(NC(=O)CCC(=O)CC(=O)C(C)(C)C)c1`, the GI50 with SNB-19, in the experiment with U-251, in the experiment with SN12C, in the experiment on SK-MEL-28, with OVCAR-4 and in the experiment with SK-MEL-5 was > 100 µM (inactive) in each case. Moreover, the GI50 in the experiment with SW-620, in the experiment with EKVX, with LOX IMVI, in the experiment with SF-539, in the experiment with UACC-62 and with SF-268 was > 100 µM (inactive) each time. In addition, the GI50 was > 100 µM (inactive) with SK-MEL-2; > 100 µM (inactive) in the experiment on RXF 393; > 100 µM (inactive) in the experiment on SK-OV-3; > 100 µM with HCT-15; > 100 µM (inactive) in the experiment with OVCAR-8; > 100 µM (inactive) in the experiment with HT-29. Further, the GI50 with K562 and in the experiment on NCI-H23 was > 100 µM (inactive) throughout.
On to `CC1(C)N=C(c2ccccc2)SC12S[C@@H]1CCCC[C@H]1S2`, for which the GI50 in the experiment on SNB-19 is 13.2 µM (inactive); in the experiment on U-251, > 100 µM (inactive); in the experiment with SN12C it was > 100 µM (inactive); with SK-MEL-28 it was > 100 µM (inactive); with OVCAR-4 it was > 100 µM (inactive); with SK-MEL-5, 17.4 µM (inactive). Moreover, the GI50 was 29.4 µM (inactive) with SW-620; > 100 µM (inactive) in the experiment on EKVX; > 100 µM (inactive) in the experiment on LOX IMVI; > 100 µM (inactive) with SF-539; > 100 µM (inactive) with UACC-62; > 100 µM (inactive) with SF-268. In addition, the GI50 is > 100 µM (inactive) in the experiment on SK-MEL-2; > 100 µM (inactive) in the experiment on RXF 393; > 100 µM (inactive) in the experiment on SK-OV-3; > 100 µM in the experiment on HCT-15; > 100 µM (inactive) in the experiment with OVCAR-8; 94.6 µM (inactive) with HT-29. The GI50 in the experiment on K562 is > 100 µM (inactive); with NCI-H23, 14.7 µM (inactive).
For `O=S(=O)(C1=CC(S(=O)(=O)c2ccccc2)CN(Cc2ccccc2)C1c1cccc2ccccc12)c1ccccc1` (stereo not given), the GI50 with SNB-19, in the experiment with U-251, in the experiment with SN12C, in the experiment with SK-MEL-28, in the experiment on OVCAR-4 and in the experiment with SK-MEL-5 was > 69 µM (inactive) throughout. Moreover, the GI50 in the experiment on SW-620, in the experiment with EKVX, in the experiment on LOX IMVI, with SF-539, in the experiment on UACC-62 and in the experiment on SF-268 was > 69 µM (inactive) throughout. The GI50 is > 69 µM (inactive) with SK-MEL-2; 25.4 µM (inactive) with RXF 393; > 69 µM (inactive) with SK-OV-3; > 69 µM in the experiment with HCT-15; > 69 µM (inactive) with OVCAR-8; > 69 µM (inactive) in the experiment on HT-29. The GI50 in the experiment on K562 and in the experiment on NCI-H23 was > 69 µM (inactive) throughout.
On to `O=C1Nc2ccccc2N/C1=C\C(=O)C(F)F`, for which the GI50 in the experiment on SNB-19, in the experiment with U-251, in the experiment with SN12C, with SK-MEL-28, in the experiment on OVCAR-4 and in the experiment with SK-MEL-5 was > 100 µM (inactive) throughout. Besides, the GI50 was > 100 µM (inactive) in the experiment with SW-620; 14.9 µM (inactive) in the experiment with EKVX; > 100 µM (inactive) in the experiment on LOX IMVI; > 100 µM (inactive) in the experiment with SF-539; > 100 µM (inactive) in the experiment with UACC-62; > 100 µM (inactive) with SF-268. The GI50 is > 100 µM (inactive) in the experiment with SK-MEL-2; > 100 µM (inactive) with RXF 393; > 100 µM (inactive) in the experiment on SK-OV-3; > 100 µM with HCT-15; > 100 µM (inactive) in the experiment with OVCAR-8; > 100 µM (inactive) in the experiment on HT-29. Also, the GI50 in the experiment on K562 and in the experiment on NCI-H23 was > 100 µM (inactive) each time.
